From PubChem BioAssay AID2060626 (Molecular Pharmacology Branch, DTP, NCI, 2025)

Test system: 168753-222-R-J1-PDC complex spheroid viability
Assay: Anticancer human tumor 168753-222-R-J1-PDC patient-derived bladder carcinoma cell line growth inhibition [CLK]
Conditions: for IC50: curve of first compound; for viability, T/C: stronger effect = lower value
Text: A high-throughput screen of multi-cell type tumor spheroids was designed to identify active combinations of […] and targeted small molecules. Complex spheroids include a stromal component modeled by human endothelial cells (HUVEC) and fibroblasts modeled by human mesenchymal stem cells (MSCs). The concentration ranges selected for each drug and investigational agent were based upon clinically achievable concentrations if the clinical Cmax of the agent was known.
Compounds. The drugs and investigational agents: cirtuvivint (SM08502; NSC835563), CC-671 (NSC850746), vemurafenib (NSC761431), tapotoclax (NSC804041), sotorasib (NSC818433), adagrasib (NSC831453), MRTX-1133 (NSC836407), BAY2416964 (NSC825713), copanlisib (NSC816437), inavolisib (NSC800729), abemaciclib (NSC768073), osimertinib (NSC779217), entinostat (NSC756642), eltanexor (KPT-8602, NSC794443), venetoclax (NSC766270), ceralasertib (NSC777638), bortezomib (NSC756655), olaparib (NSC753686), talazoparib (NSC767125), alisertib (NSC759677), peposertib (NSC802822), gemcitabine (NSC613327), 5-fluorouracil (NSC19893), SN-38 (NSC673596), oxaliplatin (NSC266046), paclitaxel (NSC125973), and doxorubicin (NSC123127), were obtained from the National Cancer Institute (NCI) Developmental Therapeutics Program Chemical Repository. The FDA-approved anticancer drug set is available from the Developmental Therapeutics Program at https://dtp.cancer.gov/organization/dscb/obtaining/available plates.htm. […] The stock solutions were prepared in dimethyl sulfoxide (DMSO, Sigma-Aldrich, St. Louis, MO, cat. D2650), except for the platinum complexes which were prepared in saline (Quality Biological, Gaithersburg, MD, cat. 114-055-101), at 800-fold the tested concentration and stored at -70 degrees C prior to their use. All drugs and investigational agents were tested over a range starting from a high concentration at or near the clinical Cmax and decreasing in half-log increments. If the clinical Cmax for an agent had not been determined, the highest concentration tested was 10 microM.
Cell Culture. All cells were maintained in an incubator at 37 degrees C and 5% CO2 with 95% humidity. The PDC lines were cultured according to standard operating procedures established by the NCI PDMR. Briefly, all PDCs were thawed and cultured in Matrigel-coated flasks prepared with a working solution of 1X Ham's F-12 nutrient mix, without supplementation (Invitrogen, Waltham, MA, cat. 11765054), 100 U/mL penicillin-streptomycin (Invitrogen, cat. 15140122), and 2.5% Matrigel (Corning Inc., Corning, NY, cat. 354248) for the first three passages. The 947758-054-R-J2-PDC line was cultured in 6B/Colon 1A media, which includes advanced DMEM/F-12 (Thermo Fisher Scientific, cat. 12634028), 10 mM HEPES (Thermo Fisher Scientific, cat. 15630080), 1X GlutaMAX supplement (Thermo Fisher Scientific, cat. 35050061), 0.1 mg/mL primocin (InvivoGen, cat. ant-pm-2), 10% defined fetal bovine serum, heat inactivated (HyClone Laboratories Inc., cat. SH30070.03HI), 1.25 mM N-Acetyl-L-cysteine (Sigma-Aldrich, cat. A9165), 10 mM nicotinamide (Sigma-Aldrich, cat. N0636), 1X B-27 supplement (Thermo Fisher Scientific, cat. 17504044), 1X N-2 supplement (Thermo Fisher Scientific, cat. 17502048), and 10 microM Y-27632 dihydrochloride (Tocris Bioscience, cat. 1254). The 876862-298-R-J1-PDC was cultured in 6E media, which includes all 6B/Colon 1A media components plus 50% L-WRN conditioned media (ATCC, cat. CRL-3276), 50 ng/mL recombinant human EGF recombinant protein (hEGF; Thermo Fisher Scientific, cat. PHG0311), 10 ng/mL recombinant human fibroblast growth factor 10 (hGFG-10; PeproTech, cat. 100-26), 1 ng/mL recombinant human fibroblast growth factor 2 (hFGF-2; PeproTech, cat. 100-18B), and 1 µM prostaglandin E2 (PGE2; Tocris, cat. 2296). The 227483-062-R1-J1-PDC line was cultured in Panc media, containing all 6E components except hFGF-2, with the addition of 500 nM SB-431542 (Selleckchem, cat. S1067) and 10 nM gastrin (Tocris, cat. 3006). […]
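Further: viability measured after seven days of drug exposure.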
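Wherever viability, T/C is given: luminescence signal used as surrogate for viable cell amount; 100% = DMSO vehicle control wells.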

COc1c(OCCCN2CCOCC2)ccc2c3n(c(=NC(=O)c4cnc(N)nc4)nc12)CCN3 + CN1CCN(c2cc(C(=O)Nc3cc4cc(-c5cnn(C)c5)ccc4cn3)ccn2)CC1
IC50 (second compound 0.0316 µM): < 3.16 nM | IC50 (second compound 0.1 µM): < 3.16 nM | IC50 (second compound 0.316 µM): < 3.16 nM | IC50 (second compound 1 µM): < 3.16 nM | IC50 (second compound 3.16 µM): < 3.16 nM | IC50 (second compound 10 µM): < 3.16 nM | viability, T/C (second compound 0.0316 µM, first compound 0.00316 µM): 49% | viability, T/C (second compound 0.0316 µM, first compound 0.01 µM): 28.7% | viability, T/C (second compound 0.0316 µM, first compound 0.0316 µM): 11.2% | viability, T/C (second compound 0.0316 µM, first compound 0.1 µM): 7.62% | viability, T/C (second compound 0.0316 µM, first compound 0.316 µM): 4.48% | viability, T/C (second compound 0.0316 µM, first compound 1 µM): 3.95% | viability, T/C (second compound 0.1 µM, first compound 0.00316 µM): 31.4% | viability, T/C (second compound 0.1 µM, first compound 0.01 µM): 21.4% | viability, T/C (second compound 0.1 µM, first compound 0.0316 µM): 7.93% | viability, T/C (second compound 0.1 µM, first compound 0.1 µM): 4.89% | viability, T/C (second compound 0.1 µM, first compound 0.316 µM): 1.94% | viability, T/C (second compound 0.1 µM, first compound 1 µM): 0.48% | viability, T/C (second compound 0.316 µM, first compound 0.00316 µM): 13.2% | viability, T/C (second compound 0.316 µM, first compound 0.01 µM): 10.1% | viability, T/C (second compound 0.316 µM, first compound 0.0316 µM): 2.34% | viability, T/C (second compound 0.316 µM, first compound 0.1 µM): 0.36% | viability, T/C (second compound 0.316 µM, first compound 0.316 µM): 0.18% | viability, T/C (second compound 0.316 µM, first compound 1 µM): 1.84% | viability, T/C (second compound 1 µM, first compound 0.00316 µM): 0.61% | viability, T/C (second compound 1 µM, first compound 0.01 µM): 0.25% | viability, T/C (second compound 1 µM, first compound 0.0316 µM): 0.08% | viability, T/C (second compound 1 µM, first compound 0.1 µM): 0.05% | viability, T/C (second compound 1 µM, first compound 0.316 µM): 0.06% | viability, T/C (second compound 1 µM, first compound 1 µM): 0.09% | viability, T/C (second compound 3.16 µM, first compound 0.00316 µM): 1.35% | viability, T/C (second compound 3.16 µM, first compound 0.01 µM): 0.2% | viability, T/C (second compound 3.16 µM, first compound 0.0316 µM): 0.08% | viability, T/C (second compound 3.16 µM, first compound 0.1 µM): 0.05% | viability, T/C (second compound 3.16 µM, first compound 0.316 µM): 0.09% | viability, T/C (second compound 3.16 µM, first compound 1 µM): 0.12% | viability, T/C (second compound 10 µM, first compound 0.00316 µM): 0.06% | viability, T/C (second compound 10 µM, first compound 0.01 µM): 0.11% | viability, T/C (second compound 10 µM, first compound 0.0316 µM): 0.17% | viability, T/C (second compound 10 µM, first compound 0.1 µM): 0.73% | viability, T/C (second compound 10 µM, first compound 0.316 µM): 0.21% | viability, T/C (second compound 10 µM, first compound 1 µM): 0.22%
